Active and inactive are the calls of the source. The rule behind the calls is not given here.
What was measured:
Type in all cases: functional, cell-based
[1] = system: A549; test: Antiproliferative activity against gallium-resistant human A549 cells after 48 hrs by MTT assay; details: A549, 48 h
[2] = system: A549; test: Potentiation of gallium acetylacetonate-induced antiproliferative activity against gallium-resistant human A549 cells assessed as allium acetylacetonate IC50 at 0.25 uM after 48 hrs by MTT assay; details: A549, 48 h
[3] = system: A549; test: Potentiation of gallium acetylacetonate-induced antiproliferative activity against gallium-resistant human A549 cells at 0.25 uM after 48 hrs by MTT assay
[4] = system: A549; test: Effect on AXL protein expression in gallium-sensitive human A549 cells at 50 uM fter 48 hrs by immunofluorescence assay
[5] = system: A549; test: Reduction in AXL protein expression in gallium-resistant human A549 cells at 50 uM fter 48 hrs by immunofluorescence assay
[6] = system: A549; test: Antiproliferative activity against gallium-sensitive human A549 cells after 48 hrs by MTT assay; details: A549, 48 h
[7] = system: A549; test: Potentiation of gallium acetylacetonate-induced antiproliferative activity against gallium-sensitive human A549 cells at 0.25 uM after 48 hrs by MTT assay

IC50 [1] [µM]	IC50 [2] [µM]	IC50 [6] [µM]	SMILES	Activity [3]	Activity [4]	Activity [5]	Activity [7]
17.4	199	8.6	O=C(CSc1nnnn1-c1cccc2ccccc12)c1ccc(O)c(O)c1	Active	inactive	Active	inactive
2.8	102	3.6	Oc1c(CN2CCN(Cc3ccc4cccnc4c3O)CC2)ccc2cccnc12	Active	inactive	Active	inactive
